The source of these data is US9734575B2, “Method for assessing cell aging” (CHRONOS THERAPEUTICS LIMITED, priority 2013, dated 2017).

The assay relates to AM134bus-5 mutant C. elegans. Description: FUDR treatment (transfer and topical) to prevent second generation progeny in synchronised worm populations on multi-well plates. The assay is classed as in vivo, Caenorhabditis elegans. The method, then:
Topical and transfer methods of FUDR application were compared and the optimal concentration of the FUDR on 24 well, 12 well and 6 well plates, assessed.
AM134bus-5 and bus-8 drug sensitive worms were synchronized by bleaching and then plated onto multi-well plates and allowed to develop to adulthood. The adults in half of the wells were transferred to a separate well which had been soaked with varying amounts of FUDR solution using M9 buffer. The remaining wells were treated topically with FUDR.
The cultures were then regularly imaged by bright field microscopy and fed with OP50 when necessary.

Take `O=c1[nH]c(=O)n([C@H]2C[C@H](O)[C@@H](CO)O2)cc1F` [FUDR, 2′-Deoxy-5-fluorouridine]: the “progeny after 11 days” value is “no progeny can be observed” (6 well plates, FUDR 2 μg/ml (25 μl of 10 mg/ml to 5 ml NGM), topical and transfer); “no progeny can be observed” (12 well plates, FUDR 1.7 μg/ml (15 μl of 10 mg/ml to 2.5 ml NGM), topical application); “progeny can be observed” (24 well plates, FUDR 2 μg/ml (5 μl of 10 mg/ml to 1 ml NGM), topical and transfer method). For the same compound, the “lowest effective dose at preventing the development of progeny” value came out at 25 µL (6 well plates, volume of 10 mg/ml FUDR to 5 ml of NGM, 1, 5, 10, 25 and 50 μl tested); 15 µL (12 well plates, volume of 10 mg/ml FUDR to 2.5 ml of NGM, 1, 5, 10, 15 and 20 μl tested). The “optimal addition of 10 mg/ml FUDR per well for preventing progeny worms from developing” value (12 well plate (1.7 ug/ml in 2.5 ml NGM)) was 0.015 mL.
